Data published in PubChem BioAssay AID588756 (Broad Institute, 2011).
Activity calls are given as the source filed them.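 The calls were made as follows: active = a falling-signal curve whose fitted AC50 is at most ten times the top valid dose; inconclusive = flat fit with 30 to 70% inhibition, or a poor fit; inactive = the rest.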

Target: Aurora kinase B (Homo sapiens) (UniProt Q96GD4)
Test: Aurora B kinase inhibition counter-screen, dose response, counter-screen for STK33 inhibitor project, biochemical, scintillation, dry powder, set 2 (AID 588756)
Settings: gamma-32P-ATP (ATP at Km), P30 filter scintillation

Sequence of Aurora kinase B (Homo sapiens) (Q96GD4 whole entry, looked up): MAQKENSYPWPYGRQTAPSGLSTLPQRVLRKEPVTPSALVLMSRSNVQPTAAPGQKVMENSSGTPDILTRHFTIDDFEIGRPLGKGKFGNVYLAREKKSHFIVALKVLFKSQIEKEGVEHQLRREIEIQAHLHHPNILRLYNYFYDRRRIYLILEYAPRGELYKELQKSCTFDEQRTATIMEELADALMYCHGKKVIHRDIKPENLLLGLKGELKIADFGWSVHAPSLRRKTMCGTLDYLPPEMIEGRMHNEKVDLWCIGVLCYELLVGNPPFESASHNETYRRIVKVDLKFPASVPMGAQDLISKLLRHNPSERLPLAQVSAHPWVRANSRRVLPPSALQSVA

| Compound | AC50 | activity change, negative = inhibition (at 10 µM (top of the series)) |
| --- | --- | --- |
| COc1cc(/C=C2\SC(=Nc3ccccc3F)NC2=O)ccc1O | > 20 µM (inactive) | – |
| COc1cc(/C=C2\SC(=Nc3ccccc3Cl)NC2=O)ccc1O | 10.1 µM | – |
| COc1cc(/C=C2\SC(=NCc3ccccc3)NC2=O)ccc1O | 2.92 µM | – |
| COc1cc(/C=C2\SC(N)=NC2=O)ccc1O | > 20 µM (inactive) | – |
| COc1cc(/C=C2\S/C(=N/c3ccccn3)NC2=O)ccc1O | – | inactive |
